Results taken from PubChem BioAssay (NCI).
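96-well plates; 48 h exposure; 5 concentrations. Endpoints by linear interpolation between flanking doses. Not reached: highest tested concentration assigned. The concentration for full growth arrest is given as TGI.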

Legend:
Assay in all cases: growth of human tumour cells (NCI), 48 h
SN12C renal = test system: SN12C renal
SK-MEL-2 melanoma = test system: SK-MEL-2 melanoma
HS 578T breast = test system: HS 578T breast
NCI/ADR-RES ovarian = test system: NCI/ADR-RES ovarian
NCI-H23 lung = test system: NCI-H23 lung
HOP-92 NSCLC = test system: HOP-92 NSCLC
LOX IMVI melanoma = test system: LOX IMVI melanoma
T-47D breast = test system: T-47D breast
NCI-H460 lung = test system: NCI-H460 lung
SK-MEL-5 melanoma = test system: SK-MEL-5 melanoma

Row | SMILES | TGI (SN12C renal) | TGI (SK-MEL-2 melanoma) | TGI (HS 578T breast) | TGI (NCI/ADR-RES ovarian) | TGI (NCI-H23 lung) | TGI (HOP-92 NSCLC) | TGI (LOX IMVI melanoma) | TGI (T-47D breast) | TGI (NCI-H460 lung) | TGI (SK-MEL-5 melanoma)
1 | O=C(CSCC(=O)N/N=C/c1cccs1)N/N=C/c1cccs1 | > 100 µM | > 100 µM | > 100 µM | > 100 µM | > 100 µM | > 100 µM | > 100 µM | > 100 µM | > 100 µM | > 100 µM
2 | COc1cc2nc(-c3ccc4ccccc4c3)[nH]c(=O)c2cc1OC | > 100 µM | > 100 µM | > 100 µM | > 100 µM | > 100 µM | > 100 µM | > 100 µM | > 100 µM | > 100 µM | > 100 µM
3 | Nc1ncnc2c1ncn2C1CCC(COS(N)(=O)=O)C1 (stereo not given) | > 100 µM | > 100 µM | > 100 µM | > 100 µM | > 100 µM | > 100 µM | > 100 µM | > 100 µM | > 100 µM | > 100 µM
4 | O=[N+]([O-])c1ccc(S[C@@H]2[C@H]3c4c(-c5ccccc5)[nH]c(-c5ccccc5)c4[C@@H]2C[C@H]3Cl)cc1 | 22.2 µM | 70.9 µM | 72.2 µM | 26.4 µM | 8.91 µM | > 100 µM | 15.4 µM | 8.67 µM | 12.9 µM | 23.5 µM
5 | CC(=O)O[C@@H]1C[C@@]23C[C@@]24CC[C@H](OC2OCC(O)C(O)C2O)C(C)(C)[C@@H]4CC=C3[C@]2(C)C[C@@H]3OC4(C[C@@H](C)[C@@H]3[C@@]12C)OC(O)[C@@]1(C)O[C@@H]41 (stereo not given in full) | > 100 µM | 40.7 µM | > 100 µM | > 100 µM | > 100 µM | > 100 µM | 57 µM | 97.7 µM | 66.9 µM | 42.7 µM
6 | O=[N+]([O-])c1c(Br)cc(Br)c2c1Nc1c(ccc(Cl)c1Cl)S2 | 27.9 µM | 39.2 µM | > 100 µM | 75.1 µM | 29.6 µM | 34.3 µM | 8.78 µM | 29.9 µM | 41.4 µM | 30.2 µM
7 | COc1cccc(CC(C)NCC(O)c2ccc(O)c(O)c2)c1 (stereo not given) | 83.8 µM | > 100 µM | > 100 µM | > 100 µM | > 100 µM | > 100 µM | > 100 µM | > 100 µM | > 100 µM | > 100 µM
8 | CC1OC2=N[C@@H]1C(=O)N[C@@H](C(C)C)C1=N[C@H](C(=O)N[C@@H](C(C)C)C3=N[C@H](C(=O)N[C@@H](C(C)C)C4=N[C@H](C(=O)N[C@H]2C(C)C)C(C)O4)C(C)O3)C(C)O1 (stereo not given in full) | > 10 µM | > 10 µM | > 10 µM | > 10 µM | > 10 µM | > 10 µM | > 10 µM | > 10 µM | > 10 µM | > 10 µM
9 | CCOC(=O)C1(C(=O)OCC)[C@H](c2ccccc2)C2=NO[C@@H]3CCC[C@H]1[C@H]23 | > 100 µM | > 100 µM | > 100 µM | > 100 µM | > 100 µM | > 100 µM | > 100 µM | > 100 µM | > 100 µM | > 100 µM
10 | CC[N+]1(C)CCC(O)(/C=C/c2ccc(OC)cc2)C(C(=O)/C=C/c2ccc(OC)cc2)C1 (stereo not given) | > 58.5 µM | 39.7 µM | > 85 µM | > 60.8 µM | 42.6 µM | 34.5 µM | > 22.5 µM | 24.6 µM | > 35.6 µM | 31.9 µM
